Data set [1] deals with T1, p38 MAP kinase (Homo sapiens, UniProt Q16539).
T1 construct: made in house; host or cells: E. coli (co-expressed with SEK-1 and MEKK)
Description: p38 (MAP) kinase in vitro assay, transfer of γ-33P-phosphate from ATP to Myelin Basic Protein. Type of data set: biochemical. Conditions: phosphorylated recombinant p38 MAP kinase, MBP substrate, γ-33P-ATP, 30° C. As for the experimental part: This example illustrates a p38 (MAP) kinase in vitro assay useful for evaluating the compounds of the invention.
The p38 MAP kinase inhibitory activity of compounds of this invention in vitro was determined by measuring the transfer of the γ-phosphate from γ-^33P-ATP by p-38 kinase to Myelin Basic Protein (MBP), using a minor modification of the method described in Ahn, et al., J. Biol. Chem. 266:4220-4227 (1991).
The phosphorylated form of the recombinant p38 MAP kinase was co-expressed with SEK-1 and MEKK in E. Coli (see, Khokhlatchev, et al., J. Biol. Chem. 272:11057-11062 (1997)) and then purified by affinity chromatography using a Nickel column.
The phosphorylated p38 MAP kinase was diluted in kinase buffer (20 mM 3-(N-morpholino)propanesulfonic acid, pH 7.2, 25 mM β-glycerol phosphate, 5 mM ethylene glycol-bis(beta-aminoethyl ether)-N,N,N′,N′-tetraacetic acid, 1 mM sodium ortho-vanadate, 1 mM dithiothreitol, 40 mM magnesium chloride). Test compound dissolved in DMSO or only DMSO (control) was added and the samples were incubated for 10 min at 30° C. The kinase reaction was initiated by the addition of a substrate cocktail containing MBP and γ-^33P-ATP. […] The phosphorylated MBP was then separated from the residual γ-^33P-ATP using a phosphocellulose membrane (Millipore, Bedford, Mass.) and quantitated using a scintillation counter (Packard, Meriden, Conn.).

The term IC50 denotes the concentration that inhibits the measured activity by half. In general, melting point refers to the temperature of the solid-liquid transition.

T1 sequence (Q16539 whole entry): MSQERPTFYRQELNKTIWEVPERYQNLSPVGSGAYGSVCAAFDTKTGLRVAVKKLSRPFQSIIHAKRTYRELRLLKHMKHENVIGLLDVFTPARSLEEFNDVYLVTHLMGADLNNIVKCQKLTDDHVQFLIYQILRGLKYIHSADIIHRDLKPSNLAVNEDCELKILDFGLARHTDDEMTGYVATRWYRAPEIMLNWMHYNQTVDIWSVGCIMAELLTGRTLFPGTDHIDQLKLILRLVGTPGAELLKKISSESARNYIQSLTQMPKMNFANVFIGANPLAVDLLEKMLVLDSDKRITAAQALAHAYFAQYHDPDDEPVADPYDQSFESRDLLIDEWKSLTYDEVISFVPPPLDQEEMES

As to `OC[C@@H](O)CNc1nc(Oc2ccc(F)cc2F)nc2[nH]nc(-c3ccccc3Cl)c12` [3-[3-(2-Chloro-phenyl)-6-(2,4-difluoro-phenoxy)-1H-pyrazolo[3,4-d]pyrimidin-4-ylamino]-propane-1,2-diol], the IC50 in data set [1] turned out to be 4 nM.
Regarding `C[C@H](O)CNc1nc(Oc2ccc(F)cc2F)nc2[nH]nc(-c3ccccc3Cl)c12` [Example 1, (S)-1-[3-(2-chlorophenyl)-6-(2,4-difluorophenoxy)-1H-pyrazolo[3,4-d]pyrimidin-4-ylamino]propan-2-ol], the melting point lay within 254.6 to 258.2 °C.
`OC[C@H](O)COc1nc(Oc2ccc(F)cc2F)nc2[nH]nc(-c3ccccc3Cl)c12` [Example 5, (S)-3-[3-(2-Chloro-phenyl)-6-(2,4-difluoro-phenoxy)-1H-pyrazolo[3,4-d]pyrimidin-4-yloxy]-propane-1,2-diol] yielded a melting point of 179.2 to 181.3 °C.
`C[C@H](O)CNc1nc(Oc2ccc(F)cc2F)cc2[nH]nc(-c3ccccc3Cl)c12` [Example 9, (S)-1-[3-(2-Chloro-phenyl)-6-(2,4-difluoro-phenoxy)-1H-pyrazolo[4,3-c]pyridin-4-ylamino]-propan-2-ol] displayed a melting point of 171.2 to 172 °C.
Turning to `C[C@H](O)CNc1cc(Oc2ccc(F)cc2F)nc2[nH]nc(-c3ccccc3Cl)c12` [Example 10, (S)-1-[3-(2-Chloro-phenyl)-6-(2,4-difluoro-phenoxy)-1H-pyrazolo[3,4-b]pyridin-4-ylamino]-propan-2-ol], the melting point lay in the range of 237.9 to 238.5 °C.

The values above are taken from patent publication US7435731B2, “Substituted pyrazolo[3,4-d]pyrimadines and methods of using the same” (Roche Palo Alto LLC, priority 2004, dated 2008).
